Holding throughout (format): functional
Experiment [1] concerns Escherichia coli. The experiment in a line: Compound was tested in vitro for antimicrobial activity against Escherichia coli DC0.
In experiment [2] the test system is Pseudomonas aeruginosa. The experiment in a line: Compound was tested in vitro for antimicrobial activity against Pseudomonas aeruginosa Dagleish: beta-lactamase producer.
The next experiment deals with Providencia stuartii. The experiment in a line: Compound was tested in vitro for antimicrobial activity against Providencia stuartii T90.
Experiment [3] has as its system Escherichia coli. The experiment in a line: Compound was tested in vitro for antimicrobial activity against Escherichia coli NCTC 10418.
Experiment [4] relates to Pseudomonas aeruginosa. The experiment in a line: Compound was tested in vitro for antimicrobial activity against Pseudomonas aeruginosa NCTC 10662.
Experiment [5] relates to Escherichia coli. The experiment in a line: Compound was tested in vitro for antimicrobial activity against Escherichia coli DC2: cell wall deficient mutant strain.
The next experiment concerns Proteus mirabilis. The experiment in a line: Compound was tested in vitro for antimicrobial activity against Proteus mirabilis 977.
Experiment [6] concerns Pseudomonas aeruginosa. The experiment in a line: Compound was tested in vitro for antimicrobial activity against Pseudomonas aeruginosa K799.

Where only a bound is given, the exact number is not on record here.

What is called MIC is the least concentration at which growth counts as inhibited.

In the case of `CC(=O)Oc1cccc(C(=O)OCC2=C(C(=O)[O-])N3C(=O)C[C@H]3S2)c1OC(C)=O.[Na+]`, the MIC against Escherichia coli [1] was > 32 µg/mL; in the experiment with Pseudomonas aeruginosa [2], > 32 µg/mL; against Providencia stuartii it was > 32 µg/mL; against Escherichia coli [3], 8 µg/mL; in the experiment with Pseudomonas aeruginosa [4] it was 8 µg/mL; against Escherichia coli [5], 0.5 µg/mL. For the same compound, the MIC was 16 µg/mL against Proteus mirabilis and > 32 µg/mL with Pseudomonas aeruginosa [6].
Regarding `C[C@@H](O)[C@H]1C(=O)N2C(C(=O)[O-])=C(CO)S[C@H]12.[Na+]`, the MIC came to 8 µg/mL against Escherichia coli [1]; 64 µg/mL with Pseudomonas aeruginosa [2]; 16 µg/mL in the experiment with Providencia stuartii; 8 µg/mL in the experiment with Escherichia coli [3]; 64 µg/mL against Pseudomonas aeruginosa [4]; 8 µg/mL in the experiment on Escherichia coli [5]. Further, the MIC worked out at 16 µg/mL in the experiment with Proteus mirabilis and 64 µg/mL in the experiment on Pseudomonas aeruginosa [6].
With `C[C@@H](O)[C@H]1C(=O)N2C(C(=O)[O-])=C(COC(=O)c3ccc(O)c(O)c3)S[C@H]12.[Na+]`, the MIC was 1 µg/mL with Escherichia coli [1]; > 64 µg/mL in the experiment on Pseudomonas aeruginosa [2]; 32 µg/mL in the experiment with Providencia stuartii; 0.5 µg/mL in the experiment on Escherichia coli [3]; 32 µg/mL in the experiment with Pseudomonas aeruginosa [4]; 0.12 µg/mL with Escherichia coli [5]. In addition, the MIC in the experiment on Proteus mirabilis is 32 µg/mL; in the experiment on Pseudomonas aeruginosa [6], > 64 µg/mL.
Turning to `O=C([O-])C1=C(CO)S[C@@H]2CC(=O)N12.[Na+]`, the MIC is 32 µg/mL against Escherichia coli [1]; > 64 µg/mL in the experiment on Pseudomonas aeruginosa [2]; 32 µg/mL with Providencia stuartii; 16 µg/mL in the experiment with Escherichia coli [3]; > 64 µg/mL against Pseudomonas aeruginosa [4]; 32 µg/mL with Escherichia coli [5]. Further, the results for the minimum inhibitory concentration (MIC) against Proteus mirabilis and against Pseudomonas aeruginosa [6] were 32 µg/mL and > 64 µg/mL, respectively.

(Values after ChEMBL document CHEMBL1126997, “Synthesis and antibacterial activity of two catechol-bearing penems” (1993).)
